According to patent US11541050B2, “Pyrimidine derivatives for the treatment of viral infections” (JANSSEN SCIENCES IRELAND UC, priority 2011, dated 2023):

Key:
[1] = target: T1, human TLR8 (wild type sequence) (Homo sapiens, UniProt Q9NR97); assay: TLR8 cellular NFκB-luc reporter assay, wild type TLR8; type: cell-based; parameters: unit not given here; details: lowest effective concentration; for TLR 8 wt LEC: wild type TLR8 (compounds 74 onward)
T1 construct: expressed in transfected cells; host or cells: HEK293
T1 sequence (Q9NR97 27-1041): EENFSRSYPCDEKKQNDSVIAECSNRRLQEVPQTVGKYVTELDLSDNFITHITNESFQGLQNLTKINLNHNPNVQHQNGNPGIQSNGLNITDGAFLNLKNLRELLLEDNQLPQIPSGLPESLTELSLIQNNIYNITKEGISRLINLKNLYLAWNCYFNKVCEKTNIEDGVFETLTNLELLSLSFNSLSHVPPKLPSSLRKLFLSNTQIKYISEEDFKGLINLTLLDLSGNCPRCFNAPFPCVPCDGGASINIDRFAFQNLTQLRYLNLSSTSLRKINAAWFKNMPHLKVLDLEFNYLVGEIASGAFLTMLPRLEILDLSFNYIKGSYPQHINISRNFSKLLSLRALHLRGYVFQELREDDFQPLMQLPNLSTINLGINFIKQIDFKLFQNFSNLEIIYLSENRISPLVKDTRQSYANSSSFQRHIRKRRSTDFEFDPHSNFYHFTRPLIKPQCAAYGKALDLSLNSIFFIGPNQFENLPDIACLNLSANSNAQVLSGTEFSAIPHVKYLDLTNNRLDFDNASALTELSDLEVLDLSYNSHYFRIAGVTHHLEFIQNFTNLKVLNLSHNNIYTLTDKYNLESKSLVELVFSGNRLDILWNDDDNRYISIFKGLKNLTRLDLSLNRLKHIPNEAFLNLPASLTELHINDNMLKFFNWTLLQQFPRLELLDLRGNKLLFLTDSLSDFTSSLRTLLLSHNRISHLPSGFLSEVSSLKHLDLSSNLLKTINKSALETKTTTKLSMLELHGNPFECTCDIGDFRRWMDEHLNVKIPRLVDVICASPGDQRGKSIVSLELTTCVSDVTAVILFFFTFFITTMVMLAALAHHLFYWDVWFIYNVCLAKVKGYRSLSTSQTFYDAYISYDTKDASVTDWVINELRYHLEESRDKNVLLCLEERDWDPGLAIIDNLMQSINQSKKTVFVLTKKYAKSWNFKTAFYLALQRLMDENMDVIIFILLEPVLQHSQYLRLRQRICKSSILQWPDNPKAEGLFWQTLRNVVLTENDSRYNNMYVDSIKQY
Procedure: (§1) The ability of compounds to activate human TLR7 and/or TLR8 was assessed in a cellular reporter assay using HEK293 cells transiently transfected with a TLR7 or TLR8 expression vector and NFκB-luc reporter construct. In one instance the TLR expression construct expresses the respective wild type sequence or a mutant sequence comprising a deletion in the second leucine-rich repeat of the TLR.
(§2) Briefly, HEK293 cells were grown in culture medium (DMEM supplemented with 10% FCS and 2 mM Glutamine). For transfection of cells in 10 cm dishes, cells were detached with Trypsin-EDTA, transfected with a mix of CMV-TLR7 or TLR8 plasmid (750 ng), NFκB-luc plasmid (375 ng) and a transfection reagent and incubated for 48 hours at 37° C. in a humidified 5% CO2 atmosphere. Transfected cells were then detached with Trypsin-EDTA, washed in PBS and resuspended in medium to a density of 1.67×10^5 cells/mL. Thirty microliters of cells were then dispensed into each well in 384-well plates, where 10 μL of compound in 4% DMSO was already present. Following 6 hours incubation at 37° C., 5% CO2, the luciferase activity was determined by adding 15 μl of Steady Lite Plus substrate (Perkin Elmer) to each well and readout performed on a ViewLux ultraHTS microplate imager (Perkin Elmer). Dose response curves were generated from measurements performed in quadruplicates. Lowest effective concentrations (LEC) values, defined as the concentration that induces an effect which is at least two fold above the standard deviation of the assay, were determined for each compound.

[2] = target: T2, human TLR7 (wild type sequence) (Homo sapiens, UniProt Q9NYK1); assay: TLR7 cellular NFκB-luc reporter assay, wild type TLR7; type: cell-based; parameters: unit not given here; details: lowest effective concentration; for TLR 7 wt LEC: wild type TLR7 (compounds 74 onward)
T2 construct: expressed in transfected cells; host or cells: HEK293
T2 sequence (Q9NYK1 27-1049): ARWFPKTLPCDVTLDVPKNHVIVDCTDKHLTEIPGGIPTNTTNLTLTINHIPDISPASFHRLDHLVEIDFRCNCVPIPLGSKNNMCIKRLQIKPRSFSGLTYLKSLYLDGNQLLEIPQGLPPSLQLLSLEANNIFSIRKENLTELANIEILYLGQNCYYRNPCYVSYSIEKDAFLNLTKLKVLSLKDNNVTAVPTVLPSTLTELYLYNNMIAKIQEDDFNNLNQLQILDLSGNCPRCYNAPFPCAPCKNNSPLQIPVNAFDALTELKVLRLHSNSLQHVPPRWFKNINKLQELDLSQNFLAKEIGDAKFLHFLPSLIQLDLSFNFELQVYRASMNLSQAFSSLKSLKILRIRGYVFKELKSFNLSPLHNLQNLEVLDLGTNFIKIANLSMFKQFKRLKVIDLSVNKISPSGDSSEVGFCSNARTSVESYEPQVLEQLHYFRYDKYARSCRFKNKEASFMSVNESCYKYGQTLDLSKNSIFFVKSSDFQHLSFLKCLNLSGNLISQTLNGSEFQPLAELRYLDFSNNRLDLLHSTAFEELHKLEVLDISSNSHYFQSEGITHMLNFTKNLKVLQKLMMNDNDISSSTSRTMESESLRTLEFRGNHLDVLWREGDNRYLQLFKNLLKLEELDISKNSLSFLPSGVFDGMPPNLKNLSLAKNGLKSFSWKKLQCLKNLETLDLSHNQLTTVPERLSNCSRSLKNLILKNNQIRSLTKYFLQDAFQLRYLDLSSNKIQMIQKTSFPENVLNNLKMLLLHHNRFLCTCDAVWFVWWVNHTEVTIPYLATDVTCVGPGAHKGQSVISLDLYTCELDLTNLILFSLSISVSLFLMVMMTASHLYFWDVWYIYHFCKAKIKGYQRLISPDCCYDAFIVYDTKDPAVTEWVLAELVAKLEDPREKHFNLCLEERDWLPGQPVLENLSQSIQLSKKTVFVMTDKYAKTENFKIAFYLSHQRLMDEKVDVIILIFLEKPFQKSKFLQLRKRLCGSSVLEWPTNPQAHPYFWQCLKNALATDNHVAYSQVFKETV
Procedure: as §1, §2

[3] = test system: HCV replicon in Huh-7 luc/neo cells; assay: Suppression of HCV replicon replication by conditioned media from compound-treated PBMC; type: cell-based, HCV type 1 b; details: Hepatitis C virus; conditioned media from compound-treated PBMC on Huh-7 luc/neo replicon cells (compounds 74 onward); read-out: PBMC HUH-7 EC50
Procedure: Activation of human TLR7 results in robust production of interferon by plasmacytoid dendritic cells present in human blood. The potential of compounds to induce interferon was evaluated by looking at the antiviral activity in the HCV replicon system upon incubation with conditioned media from peripheral blood mononuclear cells (PBMC). […] The assay utilized the stably transfected cell line Huh-7 luc/neo harboring an RNA encoding a bicistronic expression construct comprising the wild type NS3-NS5B regions of HCV type 1 b translated from an Internal Ribosome Entry Site (IRES) from encephalomyocarditis virus (EMCV), preceded by a reporter gene (Firefly-luciferase) and a selectable marker gene (neoR, neomycine phosphotransferase). The construct is flanked by 5′ and 3′ NTRs (non-translated regions) from HCV type 1 b. Continued culture of the replicon cells in the presence of G418 (neoR) is dependent on the replication of the HCV RNA. The stably transfected replicon cells that replicate HCV RNA autonomously and to high levels, encoding inter alia luciferase, were used for profiling of the conditioned cell culture media.
Briefly, PBMCs were prepared from buffy coats of at least two donors using a standard Ficoll centrifugation protocol. Isolated PBMCs were resuspended in RPMI medium supplemented with 10% human AB serum and 2×10^5 cells/well were dispensed into 384-well plates containing compounds (70 μL total volume). After overnight incubation, 10 μL of supernatant was transferred to 384-well plates containing 2.2×10^3 replicon cells/well in 30 μL (plated the day before). Following 24 hours of incubation, replication was measured by assaying luciferase activity using 40 μL/well Steady Lite Plus substrate (Perkin Elmer) and measured with ViewLux ultraHTS microplate imager (Perkin Elmer). […] Recombinant interferon α-2a (Roferon-A) was used as a standard control compound.

[4] = wild type TLR8 (compounds 1-73)
[5] = wild type TLR7 (compounds 1-73)

Structure (SMILES)	TLR 8 wt LEC [1]	TLR 7 wt LEC [2]	TLR8-wt_LEC [1, 4]	also measured
CCCCNc1nc(N)ncc1OCCn1ccc(=O)c2ccc(OC)cc21 [Compound 144]	20.790	13.010		EC50 [3]: 1.32 µM
CCCCNc1nc(N)ncc1OCc1nc(C)oc1C [Compound 178]	0.410	0.810		
CCCCNc1nc(N)ncc1OCCCCCc1ccccc1 [Compound 111]		0.257		EC50 [3]: 0.096 µM
CCCCNc1nc(N)ncc1OCc1nccc2ccccc12 [Compound 123]	0.143	0.008		
CCCCNc1nc(N)ncc1OCCCc1ccccc1C(F)(F)F [Compound 162]	>25	11.850		
CCCCNc1nc(N)ncc1OCc1cnccn1 [Compound 199]				TLR8-wt_LEC [1]: 0.218; TLR7-wt_LEC ([2]; wild type TLR7): 0.512
COc1cnc(N)nc1NCCCC(F)(F)F [Compound 66]			9.03	
CCCCNc1nc(N)ncc1OCc1csc(C)n1 [Compound 191]	0.743	0.286		
CCC(C)[C@H](CCO)Nc1nc(N)ncc1OC (stereo partly shown) [Compound 275]				TLR7-wt_LEC ([2]; wild type TLR7): 10.380
CCCCNc1nc(N)ncc1OCc1c(C)noc1C [Compound 36]			1.68	
C=CCNc1nc(N)ncc1OC [Compound 90]	8.460	>25		
CCCCNc1nc(N)ncc1OCc1ccc2ccccc2n1 [Compound 41]			0.83	
CCCCNc1nc(N)ncc1OCCCc1ccccc1 [Compound 19]			7.94	TLR7-wt_LEC [2, 5]: 1.53
CCCCNc1nc(N)ncc1OCc1nn(C)c2ccccc12 [Compound 182]	0.178	0.014		
COc1cnc(N)nc1N[C@H](CCO)CC(C)C [Compound 261]				TLR7-wt_LEC ([2]; wild type TLR7): 10.790
CCCCNc1nc(N)ncc1OCc1nc2ccccc2[nH]1 [Compound 193]	0.654	0.032		
CCCCNc1nc(N)ncc1OCc1nccc(OC)c1OC [Compound 180]	0.524	0.135		
CCCCNc1nc(N)ncc1OC(C)C [Compound 233]				TLR7-wt_LEC ([2]; wild type TLR7): 10.070
CCCC[C@H](CCO)Nc1nc(N)ncc1OC [Compound 229]				TLR7-wt_LEC ([2]; wild type TLR7): >25
CCCCNc1nc(N)ncc1OCc1cc2ccccn2n1 [Compound 224]				TLR7-wt_LEC ([2]; wild type TLR7): 0.206
CCCCNc1nc(N)ncc1OCc1nccc(OC)c1OC [Compound 42]			1.15	
CCCCNc1nc(N)ncc1OCc1cccnn1 [Compound 78]	0.827	0.519		
CCCCNc1nc(N)ncc1OCCCc1ccc(C(F)(F)F)cc1 [Compound 153]		10.640		EC50 [3]: 3.43 µM
CCCCNc1nc(N)ncc1OCc1ccccc1 [Compound 1]			2.42	TLR7-wt_LEC [2, 5]: 0.90
CCCCNc1nc(N)ncc1OCc1ccc2ccccc2n1 [Compound 157]	1.110	0.333		
CCCCNc1nc(N)ncc1OCc1cc(C)nn1C [Compound 48]			1.75	
COc1cnc(N)nc1NCCC1CC1 [Compound 91]	20.850	>25		
CCCCNc1nc(N)ncc1OCc1nc2ccccc2s1 [Compound 222]				TLR7-wt_LEC ([2]; wild type TLR7): 0.277

Further lines, with some results ahead:

TLR 8 wt LEC [1]	TLR 7 wt LEC [2]	TLR8-wt_LEC [1, 4]	Structure (SMILES)	also measured
		3.68	CCCC(C)Nc1nc(N)ncc1OC (stereo not shown) [Compound 65]	TLR7-wt_LEC [2, 5]: 21.59
		1.40	CCCC[C@@H](CCO)Nc1nc(N)ncc1OC [Compound 54]	
15.880	>25		COc1cnc(N)nc1N[C@H](CO)CC(C)C [Compound 93]	
		0.16	CCC[C@@H](CO)Nc1nc(N)ncc1OC [Compound 55]	
		0.80	CCCC[C@H](CO)Nc1nc(N)ncc1OC [Compound 73]	
		0.36	CCCC[C@@H](CO)Nc1nc(N)ncc1OC [Compound 59]	
		1.80	CCC[C@@H](CCO)Nc1nc(N)ncc1OC [Compound 57]	
		0.56	CC[C@H](C)[C@@H](CO)Nc1nc(N)ncc1OC [Compound 68]	
		4.53	CCCCNc1nc(N)ncc1OCCC [Compound 5]	TLR7-wt_LEC [2, 5]: 6.18
		6.57	CCC[C@H](CO)Nc1nc(N)ncc1OC [Compound 72]	
		0.55	CCCC(CO)Nc1nc(N)ncc1OC (stereo not shown) [Compound 62]	TLR7-wt_LEC [2, 5]: 21.26
